Results taken from patent publication US11787816B2, “Chlorin compound, and preparation and use thereof” (Southwest Jiaotong University, priority 2021, dated 2023).
Where two headings read alike, the source gives them in different places.

Legend:
[1] = background statement; cited from earlier work
[2] = Photosensitizer-mediated PDT, in vitro proliferation (MTT), huh-7; format: cell-based, human; conditions: human, huh-7 cells, no light, read-out: cell viability (%)
Procedure: (§1) Several kinds of tumor cells (human cervical cancer Hela cells, human hepatocellular carcinoma huh-7 cells and murine mammary carcinoma 4T1 cells) cultured in vitro from a variety of tissues were taken as cell models, so as to investigate the photodynamic effects mediated by different doses of CEFN, CEFO, Ce6 and HPPH on the three different tumor cells (n=3). The specific experimental procedures were carried out as follows.
(§2) Cells in the logarithmic growth phase were harvested and seeded in a 24-well plate. After growing to a confluence of 70-80%, the cells were randomly divided into a control group (free of drug and light irradiation), a drug group and a photodynamic group. The CEFN, CEFO, Ce6 and HPPH were added respectively in dark, and for each drug, four final concentrations 1, 2, 5, and 10 μg/mL were set with 3 replicates for each group. After the co-incubation, the groups were treated individually. Regarding the photodynamic group, the light irradiation was performed at a wavelength of 660 nm and three different light intensities, i.e., 2, 4 and 8 J/cm^2. After that, each group was digested, and were inoculated into a 96-well plate at 100 μL per well with 4 replicates for each treatment. 24 hours later, the 96-well plate was subjected to MTT assay as follows. Each well was added with 20 μL of MTT (3-4,5-dimethylthiazol-2,5-diphenyltetrazolium bromide) solution in the dark and incubated for 4 hours. The supernatant was discarded, and the residue was dissolved with 150 μL of dimethyl sulfoxide for 15 min. After that, the 96-well plate was measured by a microplate reader for the absorbance (OD value). The relative cell viability was calculated as follows: relative cell viability=OD value of experimental group/OD value of control group*100%.

[3] = system: human hepatocellular carcinoma huh-7 cells; test: as above; format: cell-based; conditions: Homo sapiens, light or radiation study, 660 nm, 8 J/cm^2, read-out: cell viability (%)
Procedure: as §1, §2

[4] = system: murine mammary carcinoma 4T1 cells; test: Antitumor activity as sonosensitizers (SDT) on tumor-bearing mice; format: in vivo
Procedure: The murine mammary carcinoma cells (4T1 line) were subjected to adherent culture. After growing to a confluence of 70%-80%, the cells in the culture flask were routinely digested, centrifuged and counted, and then resuspended with 0.85% normal saline to a density of 1×10^7 cells/mL. The cell suspension was injected into the left lateral middle axillary subcutaneous part of […] Bal b/c healthy mice (female, aged 6-8 weeks) at 0.1 mL/mouse. When the tumor diameter, which was observed every other day, reached 0.6-0.8 cm, the mice with well-growing tumors and no ulcers on the epidermis were selected for grouped treatment.
Mice with similar body weight and uniform tumor size are selected and randomly divided into 6 groups with 6 mice for each group. 48 h after inoculation, the mice were subjected to drug administration separately from the tail vein by group.
[…] 6 h after drug administration, each group of mice was anesthetized by intraperitoneal injection with 0.2 mL of 1% pentobarbital sodium. Then the mice were fixed to allow the tumor growth site exposed. The SDT group was treated using an ultrasonic therapeutic apparatus at an impulse waveform of 1.0 MHz and power of 3.0 W/cm^2 for 3 min. 7 days after SDT, the animals were sacrificed. The tumor was stripped and weighed, and the body weight was recorded.

[5] = Photosensitizer-mediated PDT, in vitro proliferation (MTT), 4T1; format: cell-based, murine; conditions: mouse, 4T1 cells, no light
Procedure: as §1, §2
(§3) In this experiment, photodynamic effect mediated by the compounds (except CEFO and CEFN) in different Examples of this disclosure on the murine mammary carcinoma 4T1 cells was investigated. The experimental procedures are carried out as follows. Cells in the logarithmic growth phase were harvested and seeded in a 24-well plate. After growing to a confluence of 70-80%, the cells were randomly divided into multiple photodynamic groups and multiple no-light control groups. The compounds (as shown in Table 8a) with a final concentration of 10 μg/mL were added to each group respectively in dark with 3 replicates for each group, so as to co-incubate the cells with the drug. Regarding the multiple photodynamic groups, the light irradiation was performed at a wavelength of 660 nm and the light intensity of 8 J/cm^2. After that, each group was digested, and were inoculated into a 96-well plate at 100 μL per well with 4 replicates for light treatment and no light treatment. 24 hours later, the 96-well plate was measured by MTT assay as follows. Each well was added with 20 μL of MTT (3-4,5-dimethylthiazol-2,5-diphenyltetrazolium bromide) solution in the dark and incubated for 4 hours. The supernatant was discarded, and the residue was dissolved with 150 μL of dimethyl sulfoxide for 15 min. After that, the 96-well plate was measured by a microplate reader for the absorbance (OD value). The relative cell viability of the murine mammary carcinoma 4T1 cells was calculated as follows according to the measured absorbance (OD value) in each group: relative cell viability=OD value of experimental group/OD value of control group*100%.

[6] = system: murine mammary carcinoma 4T1 cells; test: as above; format: cell-based; conditions: for viability at 10 µg/mL / cell viability (%), +8 J/cm^2 / cell viability (%), No light: 10 μg/mL
Procedure: as §1, §2, §3

[7] = Photosensitizer-mediated PDT, in vitro proliferation (MTT), Hela; format: cell-based, human; conditions: human, Hela cells, Hela, no light, read-out: cell viability (%)
Procedure: as §1, §2

[8] = system: human cervical cancer Hela cells; test: as above; format: cell-based
Procedure: as §1, §2

[9] = 5 mg/kg tail vein, SDT 1.0 MHz, 3.0 W/cm^2, 3 min, 6 h after dosing, 7 days after SDT
[10] = 5 mg/kg, SDT, mice, in g (unit assumed)
[11] = Table 8a, read-out: cell viability (%), No light
[12] = Mus musculus, light or radiation study, Table 8a, 660 nm, 8 J/cm^2, read-out: cell viability (%), +8 J/cm^2

2-(1-n-hexyloxy)ethyl chlorin f sodium salt
water solubility [1]: water-soluble

C=Cc1c(C)c2cc3nc(c(CC(=O)O)c4[nH]c(cc5nc(cc1[nH]2)C(C)=C5CC)c(C)c4C(=O)O)[C@@H](CCC(=O)O)[C@@H]3C [Ce6, reference compound]
viability at 24 h, 1 μg/mL ([2]; 1 μg/mL): 96 ± 1% | viability at 24 h, 2 μg/mL ([2]; 2 μg/mL): 94 ± 2% | viability at 24 h, 5 μg/mL ([2]; 5 μg/mL): 90 ± 2% | viability at 24 h, 10 μg/mL ([2]; 10 μg/mL): 87 ± 2% | viability at 1 µg/mL ([3]; 1 μg/mL): 42 ± 3% | viability at 2 µg/mL ([3]; 2 μg/mL): 37 ± 3% | viability at 5 µg/mL ([3]; 5 μg/mL): 37 ± 2% | viability at 10 µg/mL ([3]; 10 μg/mL): 32 ± 3% | Inhibitory rate (average ± SD, %) [4, 9]: 53.3 ± 2.8% | Tumor weight (average ± SD, g) [4, 9]: 0.080 ± 0.005 g | Body weight At the beginning [4, 10]: 20.5 ± 0.4 | Body weight At the end [4, 10]: 21.4 ± 0.5 | viability at 24 h, 1 μg/mL ([5]; 1 μg/mL, read-out: cell viability (%)): 91 ± 2% | viability at 24 h, 2 μg/mL ([5]; 2 μg/mL, read-out: cell viability (%)): 90 ± 3% | viability at 24 h, 5 μg/mL ([5]; 5 μg/mL, read-out: cell viability (%)): 86 ± 4% | viability at 24 h, 10 μg/mL ([5]; read-out: cell viability (%)): 85 ± 4% | viability at 1 µg/mL ([6]; Mus musculus, light or radiation study, 1 μg/mL, 660 nm, 8 J/cm^2, read-out: cell viability (%)): 88 ± 2% | viability at 2 µg/mL ([6]; Mus musculus, light or radiation study, 2 μg/mL, 660 nm, 8 J/cm^2, read-out: cell viability (%)): 79 ± 3% | viability at 5 µg/mL ([6]; Mus musculus, light or radiation study, 5 μg/mL, 660 nm, 8 J/cm^2, read-out: cell viability (%)): 54 ± 3% | viability at 10 µg/mL ([6]; Mus musculus, light or radiation study, 660 nm, 8 J/cm^2, read-out: cell viability (%)): 36 ± 1% | viability at 24 h, 1 μg/mL ([7]; 1 μg/mL): 92 ± 3% | viability at 24 h, 2 μg/mL ([7]; 2 μg/mL): 89 ± 2% | viability at 24 h, 5 μg/mL ([7]; 5 μg/mL): 86 ± 4% | viability at 24 h, 10 μg/mL ([7]; 10 μg/mL): 83 ± 3% | viability at 1 µg/mL ([8]; Homo sapiens, light or radiation study, Hela, 1 μg/mL, 660 nm, 8 J/cm^2, read-out: cell viability (%)): 86 ± 3% | viability at 2 µg/mL ([8]; Homo sapiens, light or radiation study, Hela, 2 μg/mL, 660 nm, 8 J/cm^2, read-out: cell viability (%)): 76 ± 3% | viability at 5 µg/mL ([8]; Homo sapiens, light or radiation study, Hela, 5 μg/mL, 660 nm, 8 J/cm^2, read-out: cell viability (%)): 38 ± 2% | viability at 10 µg/mL ([8]; Homo sapiens, light or radiation study, Hela, 10 μg/mL, 660 nm, 8 J/cm^2, read-out: cell viability (%)): 21 ± 1% | toxicity to the cells when the drug is used alone without photodynamic treatment ([8]; summary statement for Hela, huh-7 and 4T1 cells, no light): toxic to the cells

CCCCCCOCc1c(C)c2cc3nc(c(C)c4[nH]c(cc5nc(cc1[nH]2)C(C)=C5CC)c(C)c4C(=O)O)C(CCC(=O)O)C3C (stereo not drawn) [Example 1, 3-hexyloxymethyl-3-devinyl-chlorin e4]
cell viability (%), +8 J/cm^2 ([6]; Table 8a, 660 nm): 2 ± 5% | cell viability (%), No light ([6]; Table 8a): 103 ± 1%

CCCCCCCCCCCOCc1c(C)c2cc3nc(c(C)c4[nH]c(cc5nc(cc1[nH]2)C(C)=C5CC)c(C)c4C(=O)O)[C@@H](CCC(=O)O)[C@@H]3C [Example 6]
cell viability (%), +8 J/cm^2 ([6]; Table 8a, 660 nm): 4 ± 3% | cell viability (%), No light ([6]; Table 8a): 102 ± 2%

CCCCCCNCc1c(C)c2cc3nc(c(C)c4[nH]c(cc5nc(cc1[nH]2)C(C)=C5CC)c(C)c4C(=O)O)[C@@H](CCC(=O)O)[C@@H]3C [Example 16, 3-n-hexylaminomethyl-3-devinyl-chlorin e4]
cell viability (%), +8 J/cm^2 ([6]; Table 8a, 660 nm): 7 ± 5% | cell viability (%), No light ([6]; Table 8a): 103 ± 3%

CCCCCCCCCCCCNCc1c(C)c2cc3nc(c(C)c4[nH]c(cc5nc(cc1[nH]2)C(C)=C5CC)c(C)c4C(=O)O)[C@@H](CCC(=O)O)[C@@H]3C [Example 20]
viability at 24 h, 10 μg/mL [5, 11]: 104 ± 1% | viability at 10 µg/mL [6, 12]: 6 ± 3%

CCCCCCCCCCCNCc1c(C)c2cc3nc(c(C)c4[nH]c(cc5nc(cc1[nH]2)C(C)=C5CC)c(C)c4C(=O)O)[C@@H](CCC(=O)O)[C@@H]3C [Example 21]
viability at 24 h, 10 μg/mL [5, 11]: 101 ± 1% | viability at 10 µg/mL [6, 12]: 9 ± 2%

CCCCCCCCCCNCc1c(C)c2cc3nc(c(C)c4[nH]c(cc5nc(cc1[nH]2)C(C)=C5CC)c(C)c4C(=O)O)[C@@H](CCC(=O)O)[C@@H]3C [Example 22]
viability at 24 h, 10 μg/mL [5, 11]: 99 ± 2% | viability at 10 µg/mL [6, 12]: 10 ± 4%

CCCCCCCCCNCc1c(C)c2cc3nc(c(C)c4[nH]c(cc5nc(cc1[nH]2)C(C)=C5CC)c(C)c4C(=O)O)[C@@H](CCC(=O)O)[C@@H]3C [Example 23]
viability at 24 h, 10 μg/mL [5, 11]: 102 ± 2% | viability at 10 µg/mL [6, 12]: 8 ± 5%

CCCCCCCCNCc1c(C)c2cc3nc(c(C)c4[nH]c(cc5nc(cc1[nH]2)C(C)=C5CC)c(C)c4C(=O)O)[C@@H](CCC(=O)O)[C@@H]3C [Example 24]
viability at 24 h, 10 μg/mL [5, 11]: 100 ± 2% | viability at 10 µg/mL [6, 12]: 9 ± 5%

CCCCCCCNCc1c(C)c2cc3nc(c(C)c4[nH]c(cc5nc(cc1[nH]2)C(C)=C5CC)c(C)c4C(=O)O)[C@@H](CCC(=O)O)[C@@H]3C [Example 25]
viability at 24 h, 10 μg/mL [5, 11]: 100 ± 2% | viability at 10 µg/mL [6, 12]: 5 ± 3%

CCCCCNCc1c(C)c2cc3nc(c(C)c4[nH]c(cc5nc(cc1[nH]2)C(C)=C5CC)c(C)c4C(=O)O)[C@@H](CCC(=O)O)[C@@H]3C [Example 26]
viability at 24 h, 10 μg/mL [5, 11]: 102 ± 1% | viability at 10 µg/mL [6, 12]: 6 ± 5%

CCCCNCc1c(C)c2cc3nc(c(C)c4[nH]c(cc5nc(cc1[nH]2)C(C)=C5CC)c(C)c4C(=O)O)[C@@H](CCC(=O)O)[C@@H]3C [Example 27]
viability at 24 h, 10 μg/mL [5, 11]: 103 ± 3% | viability at 10 µg/mL [6, 12]: 6 ± 2%

CCCNCc1c(C)c2cc3nc(c(C)c4[nH]c(cc5nc(cc1[nH]2)C(C)=C5CC)c(C)c4C(=O)O)[C@@H](CCC(=O)O)[C@@H]3C [Example 28]
viability at 24 h, 10 μg/mL [5, 11]: 104 ± 1% | viability at 10 µg/mL [6, 12]: 7 ± 4%
